Measured values published in article PMC7118210 (Frontiers in Pharmacology, 2020).

What was measured:
[1] = Stability of naringin and naringenin in human feces with active enzymes; assay type: in vitro ADME; details: human feces in normal saline, 37°C for 12 h (over night)
Procedure: Next, 9-fold normal saline, instead of ninefold methanol-normal saline (2:1, v/v), was added to maintain enzyme activity in the feces. […] These samples were maintained at 37°C for 12 h.

[2] = Metabolites in rat liver microsomes (systems I-rat, II-rat); assay type: in vitro ADME, Sprague-Dawley rat
Procedure: (§1) Then, NADPH-B (10 μl) was added and incubated for 2 h. […] Then, UDPGA (50 μl) was added and incubated for 2 h. […] Then, UDPGA (50 μl) was added and incubated for 2 h. In addition, the naringenin solution (1 mM, 10 μl) was evaluated in rat systems I, II, and III as above.
(§2) The incubated solution (500 μl) of systems I-rat, II-rat, III-rat, I-human, and II-human were extracted with ethyl acetate (500 μl) for at least 3 min by vortexing and centrifuged for 10 min at 13,000 rpm and 4°C. The extraction process described above was performed twice and all supernatants were transferred into centrifuge tubes, dried with N2, and dissolved with methanol-water (1:1, v/v). All samples were injected into a UPLC/Q-TOF-MS system consisting of a Waters Acquity ultra performance liquid chromatography (UPLC) coupled with a Micromass micro™ quadrupole time-of-flight mass spectrometry (Q-TOF-MS) system (Waters Corp., Milford, MA, USA), equipped with an electrospray ionization source, and controlled by the MassLynx (v. 4.1) software. Separation was performed on a Waters Acquity UPLC BEH C18 column (50 mm × 2.1 mm, 1.7 μm) at 40°C. The mobile phase consisted of 0.1% formic acid (v/v) in water (A) and methanol (B) using a linear gradient of 95% to 60% A (0–25 min), 60% to 40% A (25–35 min), 40% to 10% A (35–40 min), 10% A (40–43 min), 10% to 95% A (43–44 min), and 95% A (44–45 min). The injection volume was 5 μl with flow rate of 0.2 ml min^-1. The Q-TOF-MS worked in a full scan mode (100–1,200 m/z), selection ion mode, and product ion mode, in negative ion mode, respectively. The conditions were as follows: capillary voltage 3,000 V, sample cone voltage 30 V, extraction cone voltage 2.0 V, source temperature 100°C, desolvation temperature 350°C, cone gas (N2) flow rate of 40 L/h, desolvation gas (N2) flow rate of 700 L/h, low collision energy 6.0 eV, and high collision energy 20–80 eV. Compounds were detected with accurate mass using leucine enkephalin for mass correction at 554.2615 (m/z) in negative ionization mode.

[3] = Metabolites in rat kidney microsomes (system III-rat); assay type: in vitro ADME, Sprague-Dawley rat
Procedure: as §1
The incubated solution (500 μl) of systems I-rat, II-rat, III-rat, I-human, and II-human were extracted with ethyl acetate (500 μl) for at least 3 min by vortexing and centrifuged for 10 min at 13,000 rpm and 4°C. The extraction process described above was performed twice and all supernatants were transferred into centrifuge tubes, dried with N2, and dissolved with methanol-water (1:1, v/v). All samples were injected into a UPLC/Q-TOF-MS system consisting of a Waters Acquity ultra performance liquid chromatography (UPLC) coupled with a Micromass micro™ quadrupole time-of-flight mass spectrometry (Q-TOF-MS) system (Waters Corp., Milford, MA, USA), equipped with an electrospray ionization source, and controlled by the MassLynx (v. 4.1) software. Separation was performed on a Waters Acquity UPLC BEH C18 column (50 mm × 2.1 mm, 1.7 μm) at 40°C. […] Compounds were detected with accurate mass using leucine enkephalin for mass correction at 554.2615 (m/z) in negative ionization mode.

[4] = Metabolites in human liver microsomes (systems I-human, II-human); assay type: in vitro ADME
Procedure: Then, NADPH-B (10 μl) was added and the mixed solution incubated for 2 h. […] Next, UDPGA (50 μl) was added and the mixed solution incubated for 2 h. In addition, the naringenin solution (1 mM, 10 μl) was evaluated in human systems I and II as above.
as §2

CYP 2C9 = molecular target: T1, CYP 2C9 (Homo sapiens, UniProt P11712); assay: CYP enzyme pathway, human liver microsomes with sulfaphenazole (system III-human); assay type: in vitro ADME; details: CYP2C9, major metabolic enzyme; of six metabolites measured in system III-human
T1 construct: human liver microsomes (2.25 μl); tissue RILD Research Institute for Live Diseases (Shanghai, China) Co.Ltd; host or cells: human liver microsomes, 10-donor pooled
Procedure: (§3) Five single inhibitor working solutions were separately added. Their concentrations were as follows: α-naphthoflavone (0.04 mM) for CYP 1A2, sulfaphenazole (0.8 mM) for CYP 2C9, (+/-)-N-3-benzylnirvanol (0.8 mM) for CYP 2C19, quinidine (0.08 mM) for CYP 2D6, and ketoconazole (0.04 mM) for CYP 3A4/5. All protein concentrations were 0.15 mg ml^-1 in the incubation system, except 0.3 mg ml^-1 for the sulfaphenazole working solution. Then, NADPH (10 mM, 30 μl) was added and the mixed solution incubated for 45 min. Finally, cold acetonitrile (600 μl, containing 100 ng ml^-1 flufenamic acid) was added to every tube, mixed by vortexing, centrifuged for 30 min at 14,000 g and 4°C, and the supernatants transferred into centrifuge tubes and injected into the UHPLC/MS/MS system as described above. Incubations were run in triplicate experiments.
(§4) To analyze compounds in incubation system III-human, a Luna C18 column (Phenomenex Inc., Torrance, CA, USA; 2.0 mm × 50 mm, 5 μm) was used at 40°C. The mobile phase consisted of 0.1% formic acid (v/v) in water (A) and 0.1% formic acid in acetonitrile (B). […] The injection volume was 10 μl with flow rate of 0.2 ml min^-1. The compounds were detected by multiple reaction monitoring in the negative ion electrospray mode.

CYP 2C19 = molecular target: T2, CYP 2C19 (Homo sapiens, UniProt P33261); assay: CYP enzyme pathway, human liver microsomes with (+/-)-N-3-benzylnirvanol (system III-human); assay type: in vitro ADME; details: CYP2C19; of six metabolites measured in system III-human
T2 construct: human liver microsomes (2.25 μl); tissue RILD Research Institute for Live Diseases (Shanghai, China) Co.Ltd; host or cells: human liver microsomes, 10-donor pooled
Procedure: as §3, §4

CYP 2D6 = molecular target: T3, CYP 2D6 (Homo sapiens, UniProt P10635); assay: CYP enzyme pathway, human liver microsomes with quinidine (system III-human); assay type: in vitro ADME; details: CYP2D6; of six metabolites measured in system III-human
T3 construct: human liver microsomes (2.25 μl); tissue RILD Research Institute for Live Diseases (Shanghai, China) Co.Ltd; host or cells: human liver microsomes, 10-donor pooled
Procedure: as §3, §4

CYP 3A4/5 = assay: CYP enzyme pathway, human liver microsomes with ketoconazole (system III-human); assay type: in vitro ADME; details: CYP3A4/5; of six metabolites measured in system III-human
Procedure: as §3, §4

CYP 1A2 = molecular target: T4, CYP 1A2 (Homo sapiens, UniProt P05177); assay: CYP enzyme pathway, human liver microsomes with α-naphthoflavone (system III-human); assay type: in vitro ADME; details: CYP1A2; of six metabolites measured in system III-human
T4 construct: human liver microsomes (2.25 μl); tissue RILD Research Institute for Live Diseases (Shanghai, China) Co.Ltd; host or cells: human liver microsomes, 10-donor pooled
Procedure: as §3, §4

[5] = parameters: method as in Li P. et al., 2013; details: Sprague-Dawley rats, 16 g kg^-1; ref Li P. et al., 2013; cited from earlier work
[6] = parameters: method as in Liu M. et al., 2011; Li et al., 2014; details: Sprague-Dawley rats, 1,250 mg kg^-1 day^-1 for 184 days; ref Liu M. et al., 2011; Li et al., 2014; cited from earlier work

T4 sequence (P05177 whole entry): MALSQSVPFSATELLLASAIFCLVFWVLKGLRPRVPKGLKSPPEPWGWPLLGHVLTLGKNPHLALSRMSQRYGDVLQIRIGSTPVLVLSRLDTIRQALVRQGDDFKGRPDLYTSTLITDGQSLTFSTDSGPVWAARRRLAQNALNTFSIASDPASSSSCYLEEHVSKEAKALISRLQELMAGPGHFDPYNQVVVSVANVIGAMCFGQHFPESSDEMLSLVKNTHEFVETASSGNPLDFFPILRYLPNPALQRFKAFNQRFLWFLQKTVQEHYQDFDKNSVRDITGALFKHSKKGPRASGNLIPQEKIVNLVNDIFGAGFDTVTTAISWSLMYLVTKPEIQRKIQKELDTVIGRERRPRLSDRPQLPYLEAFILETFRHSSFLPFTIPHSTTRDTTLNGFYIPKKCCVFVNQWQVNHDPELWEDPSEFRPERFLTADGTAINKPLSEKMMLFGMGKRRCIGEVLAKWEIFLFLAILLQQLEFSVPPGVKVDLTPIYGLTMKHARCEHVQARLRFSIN
T2 sequence (P33261 whole entry): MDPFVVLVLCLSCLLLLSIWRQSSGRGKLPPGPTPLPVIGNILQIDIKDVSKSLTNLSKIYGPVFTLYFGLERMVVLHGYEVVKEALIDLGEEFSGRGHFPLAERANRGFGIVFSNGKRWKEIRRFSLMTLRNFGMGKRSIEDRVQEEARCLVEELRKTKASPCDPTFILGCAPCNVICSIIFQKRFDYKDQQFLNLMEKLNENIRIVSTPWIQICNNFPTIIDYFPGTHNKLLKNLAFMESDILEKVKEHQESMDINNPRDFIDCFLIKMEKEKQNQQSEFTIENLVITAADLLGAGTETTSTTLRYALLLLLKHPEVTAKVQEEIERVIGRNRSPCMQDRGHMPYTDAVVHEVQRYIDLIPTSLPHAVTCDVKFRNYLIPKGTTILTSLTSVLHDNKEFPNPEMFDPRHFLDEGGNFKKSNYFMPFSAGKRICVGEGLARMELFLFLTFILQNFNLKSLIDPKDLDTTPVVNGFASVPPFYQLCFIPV
T3 sequence (P10635 whole entry): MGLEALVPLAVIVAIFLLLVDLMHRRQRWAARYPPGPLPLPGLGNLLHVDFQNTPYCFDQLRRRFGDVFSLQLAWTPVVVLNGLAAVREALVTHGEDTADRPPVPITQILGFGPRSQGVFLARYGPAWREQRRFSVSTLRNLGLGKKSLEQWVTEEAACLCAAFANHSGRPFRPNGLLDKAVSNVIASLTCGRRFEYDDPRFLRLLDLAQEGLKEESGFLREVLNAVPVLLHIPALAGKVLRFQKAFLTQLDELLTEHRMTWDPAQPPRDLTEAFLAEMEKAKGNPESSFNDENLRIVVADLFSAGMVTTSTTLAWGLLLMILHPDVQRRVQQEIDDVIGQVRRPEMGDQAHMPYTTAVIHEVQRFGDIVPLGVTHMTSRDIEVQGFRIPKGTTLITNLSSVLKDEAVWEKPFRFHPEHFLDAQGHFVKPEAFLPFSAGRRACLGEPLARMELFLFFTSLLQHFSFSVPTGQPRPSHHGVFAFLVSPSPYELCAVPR
T1 sequence (P11712 whole entry): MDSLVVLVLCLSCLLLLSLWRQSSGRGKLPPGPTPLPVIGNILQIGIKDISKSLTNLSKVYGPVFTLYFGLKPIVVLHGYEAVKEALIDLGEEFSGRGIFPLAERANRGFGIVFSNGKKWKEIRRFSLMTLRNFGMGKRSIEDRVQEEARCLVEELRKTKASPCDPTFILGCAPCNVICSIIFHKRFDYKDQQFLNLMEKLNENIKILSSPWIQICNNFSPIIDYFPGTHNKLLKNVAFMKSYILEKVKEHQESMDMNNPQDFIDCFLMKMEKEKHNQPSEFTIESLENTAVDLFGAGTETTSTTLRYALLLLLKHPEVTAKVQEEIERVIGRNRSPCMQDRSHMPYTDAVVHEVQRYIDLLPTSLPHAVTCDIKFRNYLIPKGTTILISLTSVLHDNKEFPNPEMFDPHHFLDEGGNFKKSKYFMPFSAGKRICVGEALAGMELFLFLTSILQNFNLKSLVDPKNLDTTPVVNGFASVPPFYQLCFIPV

amount detected in feces relative to the amount added [1]	found in rat liver microsomes, incubation of naringenin (S) [2]	found in rat kidney microsomes, incubation of G/S [3]	found in human liver microsomes, incubation of naringenin (S) [4]	SMILES	metabolites the enzyme is responsible for (CYP 2C9)	metabolites the enzyme contributes to (CYP 2C19)	metabolites the enzyme contributes to (CYP 2D6)	metabolites the enzyme contributes to (CYP 3A4/5)	metabolites the enzyme contributes to (CYP 1A2)	toxicity after a single p.o. bolus dose [5]	adverse effects in toxicity study [6]
less than 20%	+	+	+	O=C1C[C@@H](c2ccc(O)cc2)Oc2cc(O)cc(O)c21 [naringenin, Naringenin]	–	–	–	–	–	–	–
–	–	–	–	C[C@@H]1O[C@@H](O[C@H]2[C@H](Oc3cc(O)c4c(c3)O[C@H](c3ccc(O)cc3)CC4=O)O[C@H](CO)[C@@H](O)[C@@H]2O)[C@H](O)[C@H](O)[C@H]1O [naringin, Naringin]	six metabolites	four metabolites	three metabolites	two metabolites	one metabolite	no apparent toxicity	no adverse effects
